Values joined by “and” are separate entries in the source; they are usually repeats but may differ in a detail not shown here. Identical values can stand only once. Like-named read-outs stand apart in the source and are kept apart here.
What was measured:
Verticillium dahliae = test: Protection of cotton against Verticillium wilt, seedling dipping inoculation; type: in vivo; conditions: for Plant survival rating (out of 10) / Severity rating (1-9): cotton ST6611, DCSA 1 lb/A, glyphosate 0.75 lb/A 24 hours before inoculation; for Severity rating (1-9): 1 healthy, 9 dead
Excerpt: DCSA was unexpectedly found to provide protection to cotton plants against Verticillium dahliae, causal agent of cotton wilt disease (Table 6). Cotton plants of the variety ST6611, BOLLGARD 2, ROUNDUP READY FLEX, were inoculated with a moderate isolate (DPL) or a virulent isolate (King) of Verticillium by a seedling dipping method. Seedlings at the first true leaf stage were taken out from the pots, one inch of roots were cut off, seedlings were dipped in a spore slurry for one minute, and then transplanted back in the pots. These strains were isolated and provided by Dr. Terry Wheeler (Texas A&M University, TX USA). DCSA was applied at the rate of 1 lb/A and glyphosate (ROUNDUP WEATHERMAX, Monsanto) at the rate of 0.75 lb/A 24 hours before inoculation. Protection against Verticillium was measured on a disease severity scale of 1-9: 1 being healthy and 9 being dead because of disease, and also was measured as the number of plants that survived out of 10 inoculated plants.

[1] = tested on: PR-2, i.e., β-1,3-glucanase; test: Induction of PR-2 mRNA (northern blot) in DMO soybean after spraying; type: in vivo; conditions: for induction of PR2 at various rates: 0.25, 0.5 and 1 lb/acre, 24 hrs after treatment, two independent transgenic soybean lines, FIG. 2
Excerpt: (§1) Transgenic and control soybean seeds (cultivars Thorne, NE3001, A3525) were planted into 3.5-inch square plastic pots containing Redi-Earth™ (Scotts-Sierra Horticultural Products Co., Marysville, Ohio). The pots were placed on capillary matting in 35 inch×60 inch fiberglass watering trays for overhead and/or sub-irrigation for the duration of the test period so as to maintain optimum soil moisture for plant growth and were fertilized with Osmocote® (14-14-14 slow release; Scotts-Sierra Horticultural Products Co., Marysville, Ohio) at the rate of 100 gm/cu. ft. to sustain plant growth for the duration of greenhouse trials.
(§2) A 14 hour minimum photoperiod was provided with supplemental light at about 600 μE (micro-Einsteins) as needed. Trials were established in a randomized block design randomized by rate with 4 to 6 replications of each treatment.
(§3) All herbicide applications were made with the track sprayer using a Teejet® 9501E flat fan nozzle (Spraying Systems Co, Wheaton, Ill.) with air pressure set at a minimum of 24 psi (pounds per square inch), or 165 kpa (kilopascals)). The spray nozzle was kept at a height of about 16 inches above the top of plant material for spraying. The spray volume was 10 gallons per acre or 93 liters per hectare. Applications were made when plants had reached V-3 stage.
Leaf samples were harvested after 0, 3, 8, 24, 48, 72 hrs after treatment (HAT) and frozen for further analysis. […] RNA was extracted and analyzed by northern blot analysis using PR-2, i.e., β-1,3-glucanase as a probe.

soybean = conditions: DMO transgenic soybean, dicamba 1.5 lb ae/acre Pre and/or Post (V3-4), in 4/5 events and 13/15 treatments, FIG. 6
Method: The yield enhancing-benefit of DSCA was tested by growing non-transgenic and transgenic plants and applying dicamba to transgenic plants and harvesting the seeds. Non-transgenic and transgenic soybean seeds were planted near the beginning of the growing season in several locations at the time of best possible growth conditions such as soil moisture, temperature, and seeding depth. […] In all, 240 plots were planted at 6 locations (40 per location).
Four non-transgenic border rows were planted all around the trial using a known commercial line such as A3525. Optimum production and management practices known in the art were followed. Maximum pest control and disease control was practiced as needed to prevent confounding effects of dicamba applications. The field was irrigated as needed according to standard practices.

soybean plants = type: in vivo
Excerpt: as §1, §2, §3
For this example, the plants were grown as described in the above example. Transgenic and non transgenic soybean plants carrying the DMO gene in their genome were either treated with Paraquat (Gramoxone®; Syngenta) to create oxidative stress or with dicamba followed by Paraquat at V3 stage. The dicamba rate was 1 lb/acre or 1120 g ae/ha. Paraquat was applied at 30, 70, or 200 g ae/ha. Plants were then evaluated for paraquat injury by visually assessing injury at a particular day after treatment (DAT) for injury on a scale of 0 to 100 percent relative to untreated control plants, with zero representing “no” injury and 100% representing “complete” injury or death. Data were collected and analyzed using suitable statistical methods.
In another experiment, the effect of externally applied DCSA was tested for its benefit in protecting soybean plants from oxidative stress injury caused by Paraquat. Different amounts of DCSA were applied 24 hrs before applying Paraquat to test any correlation between the amount of DCSA applied and the extent of protection obtained from oxidative stress measured in terms of reduction in % injury as described above. Different levels of dicamba were also applied separately to test the same hypothesis.

cotton plants = test: Paraquat (Gramoxone) oxidative stress injury in cotton, visual % injury; type: in vivo; conditions: for Percentage injury: 2 DAT, DCSA where applied 1 lb/acre 24 hours before
Method: Four different cotton cultivars as indicated in Table 3 were grown in 4-inch pots for two weeks. These cotton plants were either sprayed with DCSA (BASF) at the 1 lb/A rate, or unsprayed (no DCSA application, as control). Experimental plants (treated with DCSA and untreated) were sprayed with Paraquat (Gramoxone®; Syngenta) at 30 gm/ha, 70 gm/ha, and 100 gm/ha rates, 24 hours after the application of DCSA, to simulate oxidative stress. […] The same experiment was repeated at two different growth stages of cotton (2 nodes stage and 5 nodes stage).

[2] = tested on: Root Knot Nematode (RKN; Meloidogyne incognita); test: Control of cotton root knot nematode in cotton plants (ST474); type: in vivo; conditions: RKN + DCSA
Method: DCSA was unexpectedly found to control gall formation, improve plant height and reduce number of eggs produced by the nematode in cotton plants (ST474) (Table 5). Ten to fourteen days old cotton plants were treated with DCSA at the rate of […], 24 hrs before inoculating them with RKN eggs. […] Plant height, gall rating, and egg counts were measured 45 days after inoculation. The gall rating scale was 0-5 with 0=no visible galling and 5=heavy galling.

Pythium ultimum = Pythium ultimum inoculation of sprayed cotton seedlings; type: in vivo; conditions: cotton plants contacted with 3,6-DCSA; untreated plants are killed
Method: Ten-day old Roundup Ready® Flex Cotton (Event MON 88913; U.S. Publ. 20060059590) seedlings were sprayed with a mixture of Roundup Weather Max® (Monsanto, St. Louis, Mo.) and 3,6-DCSA (BASF). The control plants were sprayed with water only. The cotton seedlings from both treatments were inoculated with Pythium ultimum by dipping seedling into inoculum slurry, 24 hours after the spray application. The positive control plants were neither sprayed nor inoculated with P. P. ultimum. […] Cotton plants treated with Roundup® and DCSA were as healthy as were the plants not inoculated with P. ultimum.

[3] = tested on: Xanthomonas campestris pv. malvacearum; test: Bacterial blight tooth pick inoculation of sprayed cotton plants; type: in vivo; conditions: two-week old cotton, DCSA sprayed about 24 hours before inoculation, FIG. 4
Method: In this example, two-week old cotton plants were sprayed with DCSA while control plants received spray application of water only. The plants were inoculated with bacterial blight pathogen (Xanthomonas campestris pv. malvacearum) about 24 hours after the DCSA spray application using a tooth pick inoculation method. As shown in the FIG. 4, the cotton plants inoculated with the bacterial pathogen but not sprayed with DCSA developed necrotic spots, typical symptoms of bacterial blight. […] The results of this experiment indicate that DCSA application reduced bacterial infection on cotton plants when inoculated with bacterial pathogen 24 hours after the DCSA spray.

[4] = Verticillium isolate DPL (moderate)
[5] = Verticillium isolate King (virulent)
[6] = individual cotton plants 1-8, DCSA 24 hrs before inoculation, 45 days after inoculation

## O=C(O)CNCP(=O)(O)O [Glyphosate, N-phosphonomethylglycine, reference compound]
Verticillium dahliae; [4]
  Plant survival rating (out of 10): 10
  Severity rating (1-9): 2
Verticillium dahliae; [5]
  Plant survival rating (out of 10): 10
  Severity rating (1-9): 3.5

## COc1c(Cl)ccc(Cl)c1C(=O)O [Dicamba, 3,6-dichloro-2-methoxybenzoic acid]
[1]
  induction of PR2 at various rates: induction of PR2
[1]; DMO soybean, dicamba (Clarity) 1 lb/acre at Post-V3, leaf samples 0-72 HAT, FIG. 1
  induction of PR2 at various time points: induction of PR2
soybean
  yield relative to unsprayed controls: an increase or equivalent yield to unsprayed controls
Soybean plants; in vivo
  % injury at 5 DAT: 65.00% and 54.17% and 45.83% and 51.67% and 40.83%
  Paraquat injury: significantly reduced Paraquat injury
  protection against oxidative stress caused by subsequently applied paraquat: provided protection against oxidative stress

## C[n+]1ccc(-c2cc[n+](C)cc2)cc1 [Paraquat]
Cotton plants; cotton ST3273B2RF, Gramoxone 30 g a.i./ha
  Percentage injury: 35%
Cotton plants; cotton ST3273B2RF, Gramoxone 70 g a.i./ha
  Percentage injury: 50%
Cotton plants; cotton ST3273B2RF, Gramoxone 100 g a.i./ha
  Percentage injury: 50%
Cotton plants; cotton ST4575BR, Gramoxone 100 g a.i./ha
  Percentage injury: 65%
Cotton plants; cotton ST4646B2RF, Gramoxone 100 g a.i./ha
  Percentage injury: 70%
Cotton plants; cotton ST6622RF, Gramoxone 70 g a.i./ha
  Percentage injury: 50%
Cotton plants; cotton ST6622RF, Gramoxone 100 g a.i./ha
  Percentage injury: 70%
Soybean plants; N3001 (non-transgenic) soybean, paraquat 200 g ae/ha, V-3 stage, 4 DAT
  % injury: 75%
Soybean plants; transgenic event 462-1-21, paraquat 100 g ae/ha alone
  % injury at 5 DAT Paraquat alone control: 75.83%
Soybean plants; transgenic event 469-13-19, paraquat 100 g ae/ha alone
  % injury at 5 DAT Paraquat alone control: 77.50%
Soybean plants; transgenic soybean plants contacted with Paraquat alone
  injury rate: about 75%

## O=C(O)c1c(Cl)ccc(Cl)c1O [DCSA, 3,6-dichloro salicylic acid]
[2]; individual cotton plants 1-8, 45 days after inoculation, 0=no visible galling, 5=heavy galling
  RKN Gall Rating (0-5): 0 (4×) and 2 and 1 (3×)
[2]; [6]
  Egg Count/pot: 5,200 and 1,800 and 2,200
  Plant Height: 25.4 cm (3×) and 22.2 cm and 17.8 cm and 14.0 cm and 15.9 cm and 12.7 cm
[2]; mean of 8 cotton plants, 45 days after inoculation
  Plant Height, Mean: 19.8 cm
[2]; mean of 8 cotton plants, 45 days after inoculation, 0=no visible galling, 5=heavy galling
  RKN Gall Rating (0-5), Mean: 0.6
Cotton plants; four varieties of RR cotton pretreated with DCSA (24 hours), two nodes stage and 5 nodes stage
  Gramoxone injury: reduced significantly
Pythium ultimum
  survival of cotton plants after inoculation with Pythium ultimum: survive inoculation
[1]
  induction of PR2 at various rates: induction of PR2
Verticillium dahliae; [4]
  Plant survival rating (out of 10): 10
  Severity rating (1-9): 1
Verticillium dahliae; [5]
  Plant survival rating (out of 10): 10
  Severity rating (1-9): 2
Verticillium dahliae; cotton, isolates DPL and King, DCSA 1 lb/A 24 hours before inoculation
  protection against Verticillium: provided protection against both moderate and strong isolates of Verticillium dahliae
Soybean plants; event 469-13-19, 280 g/ha of Dicamba or DCSA followed by 100 g ae/ha of paraquat
  % injury at 5 DAT: 50.83%
Soybean plants; event 469-13-19, 561 g/ha of Dicamba or DCSA followed by 100 g ae/ha of paraquat
  % injury at 5 DAT: 48.33%
Soybean plants; event 469-13-19, 1120 g/ha of Dicamba or DCSA followed by 100 g ae/ha of paraquat
  % injury at 5 DAT: 43.33%
Soybean plants; in vivo
  % injury at 5 DAT: 66.67% and 53.33% and 49.17%
Soybean plants; transgenic soybean, applied 24 hrs before Paraquat, reduction in injury increased with rate
  protection against oxidative stress caused by subsequently applied paraquat: provided protection against oxidative stress
[3]
  bacterial blight symptoms: only localized lesions (HR response) and no increase in bacterial blight symptoms
